Measured values: US9126999B2, “Tetrahydropyrazolopyrimidine compounds” (EISAI R&D MANAGEMENT CO., LTD., priority 2012, dated 2015)
pIC50: −log10 of the molar value.

Molecular target: T1, Human TLR7 (Homo sapiens, UniProt Q9NYK1)
T1 construct: engineered to stably and individually express human TLR4, TLR7 or TLR9 full-length ORF cDNAs; host or cells: HEK-293 (ATCC) with ELAM-1 NF-kappaB luciferase reporter
T1 sequence (Q9NYK1 27-1049): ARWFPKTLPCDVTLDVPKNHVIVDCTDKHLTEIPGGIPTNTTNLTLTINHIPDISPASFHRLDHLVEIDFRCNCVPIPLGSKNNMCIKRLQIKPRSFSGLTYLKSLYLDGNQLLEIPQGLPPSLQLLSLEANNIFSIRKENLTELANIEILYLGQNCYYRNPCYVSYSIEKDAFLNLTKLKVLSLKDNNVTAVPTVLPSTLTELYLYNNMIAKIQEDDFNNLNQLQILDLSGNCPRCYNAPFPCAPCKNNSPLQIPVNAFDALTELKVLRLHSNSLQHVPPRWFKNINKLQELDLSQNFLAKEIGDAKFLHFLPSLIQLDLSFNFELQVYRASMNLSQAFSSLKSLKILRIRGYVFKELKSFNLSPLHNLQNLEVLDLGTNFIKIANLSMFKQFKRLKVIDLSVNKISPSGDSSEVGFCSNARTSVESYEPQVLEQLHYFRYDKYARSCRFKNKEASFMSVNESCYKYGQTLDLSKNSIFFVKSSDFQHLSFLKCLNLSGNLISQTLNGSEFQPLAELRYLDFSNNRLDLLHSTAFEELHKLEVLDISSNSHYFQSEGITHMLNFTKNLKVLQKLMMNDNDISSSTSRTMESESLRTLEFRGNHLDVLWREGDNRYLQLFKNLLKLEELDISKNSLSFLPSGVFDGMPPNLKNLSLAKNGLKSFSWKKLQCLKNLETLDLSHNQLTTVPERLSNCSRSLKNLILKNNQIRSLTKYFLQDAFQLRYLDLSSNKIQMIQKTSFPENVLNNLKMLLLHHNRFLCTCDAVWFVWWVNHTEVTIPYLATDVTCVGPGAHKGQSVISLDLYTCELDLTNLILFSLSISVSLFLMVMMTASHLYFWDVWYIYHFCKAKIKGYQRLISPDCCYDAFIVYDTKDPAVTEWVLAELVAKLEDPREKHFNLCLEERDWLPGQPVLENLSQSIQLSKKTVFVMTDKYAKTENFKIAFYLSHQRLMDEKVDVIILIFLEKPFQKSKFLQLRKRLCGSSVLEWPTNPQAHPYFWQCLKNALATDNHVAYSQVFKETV
Experiment: HEK-293 NF-kappaB luciferase reporter assay, CL097 stimulus
Assay type: cell-based
Conditions: ligand CL097, analyte NFkB-luciferase

COc1ccc([C@@H]2C[C@H](C(F)(F)F)n3nc(-c4ccc(C(=O)N5CCNCC5)cc4)cc3N2)cc1OC [ER-892887, (4-((5S,7R)-5-(3,4-dimethoxyphenyl)-7-(trifluoromethyl)-4,5,6,7-tetrahydropyrazolo[1,5-a]pyrimidin-2-yl)phenyl)(piperazin-1-yl)methanone]
pIC50: 8.00
